{"source": "patent US20240327764A1", "about": "“Manufacturing a Distilled Spirit Based Functional Ingredient” (priority 2022, published 2024)", "key": {"MAO A": {"target": "T1, MAO A (Homo sapiens, UniProt P21397)", "T1 sequence (P21397 1-527)": "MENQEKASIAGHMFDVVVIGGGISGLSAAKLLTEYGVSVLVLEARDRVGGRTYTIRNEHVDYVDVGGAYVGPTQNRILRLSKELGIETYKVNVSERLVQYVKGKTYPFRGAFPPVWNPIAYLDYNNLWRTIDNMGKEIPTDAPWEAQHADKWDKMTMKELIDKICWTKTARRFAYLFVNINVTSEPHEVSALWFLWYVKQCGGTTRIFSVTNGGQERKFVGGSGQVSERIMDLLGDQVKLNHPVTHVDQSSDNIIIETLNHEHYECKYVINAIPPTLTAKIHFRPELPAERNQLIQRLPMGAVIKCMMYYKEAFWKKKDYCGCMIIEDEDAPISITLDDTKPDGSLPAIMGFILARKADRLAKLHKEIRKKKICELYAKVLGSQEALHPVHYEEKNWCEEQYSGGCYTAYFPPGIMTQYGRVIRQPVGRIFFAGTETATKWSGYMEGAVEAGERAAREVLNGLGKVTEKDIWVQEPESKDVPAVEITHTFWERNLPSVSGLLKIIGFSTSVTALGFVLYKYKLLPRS", "experiment": "MAO A inhibitory activity assay (% inhibition)", "assay_type": "biochemical", "conditions": "terpene added at 0.5% (v/v) to Don Julio Añejo (40% ABV) versus 40% ethanol", "text": "(§1) U.S. […] The contents of this document are incorporated herein by reference, but briefly, methods that include reverse osmosis and low-pressure evaporation to provide retentates with significant concentrations of these inhibitors are described. In addition, details of assay methods for monoamine oxidase activity (and therefore inhibition thereof) and for ethanol content are provided."}, "MAO B": {"target": "T2, MAO B (Homo sapiens, UniProt P27338)", "T2 sequence (P27338 1-520)": "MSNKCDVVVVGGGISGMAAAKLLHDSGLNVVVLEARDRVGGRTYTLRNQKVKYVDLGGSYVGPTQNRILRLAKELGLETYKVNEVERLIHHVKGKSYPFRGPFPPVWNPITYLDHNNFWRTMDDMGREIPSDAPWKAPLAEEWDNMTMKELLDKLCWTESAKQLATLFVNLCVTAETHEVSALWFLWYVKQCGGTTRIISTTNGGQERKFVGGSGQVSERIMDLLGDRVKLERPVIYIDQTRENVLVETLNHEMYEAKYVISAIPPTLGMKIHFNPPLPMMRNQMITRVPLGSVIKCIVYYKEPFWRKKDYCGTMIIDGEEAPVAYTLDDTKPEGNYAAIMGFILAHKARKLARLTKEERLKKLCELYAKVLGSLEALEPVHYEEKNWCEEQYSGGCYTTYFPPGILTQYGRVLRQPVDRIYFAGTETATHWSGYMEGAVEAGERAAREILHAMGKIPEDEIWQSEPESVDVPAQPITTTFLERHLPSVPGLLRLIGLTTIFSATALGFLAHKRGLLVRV", "experiment": "MAO B inhibitory activity assay (% inhibition)", "assay_type": "biochemical", "conditions": "terpene added at 0.5% (v/v) to Don Julio Añejo (40% ABV) versus 40% ethanol", "text": "as §1"}}, "data": [{"smiles": "C=C(C)[C@@H]1CCC2=CCC[C@@H](C)[C@]2(C)C1", "note": "[valencene]", "values": [{"measurement": "Δ % Inhibition MAO A (DJA + terpene) − (ETOH + terpene)", "setting": "MAO A", "value": 9, "unit": "%"}, {"measurement": "Δ % Inhibition MAO B (DJA + terpene) − (ETOH + terpene)", "setting": "MAO B", "value": 20, "unit": "%"}]}]}
